From paper PMC5048153 (Scientific Reports, 2016)

Key:
L02 cells = assay: Cytotoxicity on L02 cells (MTT); assay type: cell-based, human; conditions: after treatment; for inhibition at 100 µM: Homo sapiens, L02, 100μM, read-out: IR (inhibitory rate) L02; for IR (inhibitory rate) L02: 100μM
Method: (§1) Human normal hepatic L02 cells, human embryonic kidney cell line 293 cells (HEK293) and Rattus myoblast cell line H9C2 cells were respectively seeded in 96-well plates at a density of 4 × 10^3 cells per well and cultured in the 1640 or DMEM medium, with the supplement of 10% fetal bovine serum, penicillin (100 unit/ml), streptomycin (100 μg/ml) in a humidified incubator with 5% CO2 for 24 h. […] The cytotoxicities of the compounds were evaluated by MTT method.

[1] = tested on: corticosterone-injured PC12 cells; assay: Protective effects on corticosterone-injured PC12 cells (MTT); assay type: cell-based, rat; design: key to PR (protection rate), Table S1: compounds did not shown protection effects on corticosterone-injured PC12 cells; conditions: 24 h after treatment; for PR (protection rate), Table S1: 1.25µM; for PR (protection rate): 200 μM corticosterone
Method: PC12 cells were purchased from American Type Culture Collection and were maintained in DMEM medium supplemented with penicillin (100 unit/ml), streptomycin (100 μg/ml), 5% fetal bovine serum (FBS), and 10% horse serum at 37 °C in humidified atmosphere with 5% CO2. The detailed procedures were performed referring to the reported literatures. Briefly, PC12 cells of logarithmic growth phase were collected, re-suspended and then seeded at a density of 1 × 10^5 cells per well in 96-well plates and cultured in the DMEM medium with 5% horse serum, 10% FBSfor 24 h.
After incubation with compounds, 20 μl of 5 mg/ml MTT solution was added to each well and cultured at 37 °C for 2 h–4 h. Then, the culture medium was removed, and 150 μl dimethyl sulfoxide(DMSO) was added to each well for 15 min at room temperature. The absorbance of each well was measured at 570 nm using a microplate reader. The protective rates (PR) were calculated according to equation (1).

HEK293 cells = assay: Cytotoxicity on HEK293 cells (MTT); assay type: cell-based, human; conditions: after treatment; for inhibition at 100 µM: Homo sapiens, HEK293, 100μM, read-out: IR (inhibitory rate) HEK293; for IR (inhibitory rate) HEK293: 100μM
Method: as §1

5-HT2C receptor = biological target: T1, 5-HT2C receptor (Homo sapiens, UniProt P28335); assay: FLIPR assay for 5-HT2C antagonism; assay type: cell-based
T1 sequence (P28335 33-458): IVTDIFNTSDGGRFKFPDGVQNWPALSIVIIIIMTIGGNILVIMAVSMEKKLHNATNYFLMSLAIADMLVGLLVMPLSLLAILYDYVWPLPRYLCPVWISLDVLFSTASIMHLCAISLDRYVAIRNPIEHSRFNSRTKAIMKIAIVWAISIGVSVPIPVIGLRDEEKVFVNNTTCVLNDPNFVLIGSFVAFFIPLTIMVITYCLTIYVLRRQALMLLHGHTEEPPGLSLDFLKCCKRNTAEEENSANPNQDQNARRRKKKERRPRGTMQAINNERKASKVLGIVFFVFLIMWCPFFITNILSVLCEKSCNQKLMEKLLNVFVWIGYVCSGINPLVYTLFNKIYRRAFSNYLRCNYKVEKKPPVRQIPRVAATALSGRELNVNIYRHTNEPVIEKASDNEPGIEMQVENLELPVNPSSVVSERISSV
Method: Seed cells at the density of 10 K cell/well, 37 °C, 5% CO2 incubate for 16–24 hours, then loading cells with 30 ul of Calcium 5 and 37 °C, 5% CO2 incubate for 1 hour. After transfer compound to compound plate with 30 ul Assay Buffer by Echo, add 15 ul/well of compound, incubate for 10 mins.

| Compound | inhibition at 100 µM (L02 cells) | PR (protection rate), Table S1 [1] | inhibition at 100 µM (HEK293 cells) | further results |
| --- | --- | --- | --- | --- |
| COc1ccc2c(c1)C(CCNC(=O)NC1CC1)=NCC2.O=C(O)C(=O)O [6b-1, 1-Cyclopropyl-3-(2-(7-methoxy-3,4-dihydroisoquinolin-1-yl)ethyl)urea oxalate] | 27.2% | - | 19.5% |  |
| 2,6-Difluoro-N-(2-(7-methoxy-3,4-dihydroisoquinolin-1-yl)ethyl)benzamide oxalate [6a-34] |  | - |  | IR (inhibitory rate) L02 (L02 cells): 44.0%; IR (inhibitory rate) HEK293 (HEK293 cells): 47.1% |
| COc1ccc2c(c1)C(CCNC(=O)Nc1nccs1)=NCC2.O=C(O)C(=O)O [6b-17, 1-(2-(7-Methoxy-3,4-dihydroisoquinolin-1-yl)ethyl)-3-(thiazol-2-yl)urea oxalate] | 20.1% | 13.9% | 21.9% | PR (protection rate) ([1]; 1.25 μM): above 10% |
| COc1ccc2c(c1)C(CCNC(=O)c1ccc(Cl)cc1)=NCC2 [6a-5, 4-Chloro-N-(2-(7-methoxy-3,4-dihydroisoquinolin-1-yl)ethyl) benzamideoxalate] | 67% | 4.1% | 60% |  |
| COc1ccc2c(c1)C(CCNC(=O)c1ccc3ccccc3n1)=NCC2.O=C(O)C(=O)O [6a-26, N-(2-(7-Methoxy-3,4-dihydroisoquinolin-1-yl)ethyl)quinoline-2-carboxamide oxalate] | 42.7% | - | 48.6% |  |
| COc1ccc2c(c1)C(CCNC(=O)c1cccc(C)c1)=NCC2.O=C(O)C(=O)O [6a-22, N-(2-(7-Methoxy-3,4-dihydroisoquinolin-1-yl)ethyl)-3-methylbenzamide oxalate] | 31.8% | - | 22.2% |  |
| COc1ccc2c(c1)C(CCNC(=O)c1ccc(C#N)cc1)=NCC2.O=C(O)C(=O)O [6a-19, 4-Cyano-N-(2-(7-methoxy-3,4-dihydroisoquinolin-1-yl)ethyl)benzamide oxalate] | 45% | - | 55.9% |  |
| COc1ccc2c(c1)C(CCNC(=O)c1cccnc1)=NCC2.O=C(O)C(=O)O [6a-23, N-(2-(7-Methoxy-3,4-dihydroisoquinolin-1-yl)ethyl)nicotinamide oxalate] | 66.9% | - | 57.8% |  |
| COc1ccc2c(c1)C(CCNC(=O)c1ccccc1)=NCC2.O=C(O)C(=O)O [6a-10, N-(2-(7-Methoxy-3,4-dihydroisoquinolin-1-yl)ethyl)benzamide oxalate] | 22.5% | - | 27.6% |  |
| COc1ccc2c(c1)C(CCNC(=O)c1ccc(C)cc1)=NCC2.O=C(O)C(=O)O [6a-25, N-(2-(7-Methoxy-3,4-dihydroisoquinolin-1-yl)ethyl)-4-methylbenzamide oxalate] | 50.8% | - | 65.7% |  |
| COc1ccc2c(c1)C(CCNC(=O)Nc1ccc(CC#N)cc1)=NCC2.O=C(O)C(=O)O [6b-20, 1-(4-(Cyanomethyl)phenyl)-3-(2-(7-methoxy-3,4-dihydroisoquinolin-1-yl)ethyl)urea oxalate] | 52% | - | 47.8% |  |
| COc1ccc2c(c1)C(CCNC(=O)c1cc(Br)cnc1Cl)=NCC2.O=C(O)C(=O)O [6a-30, 5-Bromo-2-chloro-N-(2-(7-methoxy-3,4-dihydroisoquinolin-1-yl)ethyl)nicotinamide oxalate] | 47.5% | - | 49.1% |  |
| COc1ccc2c(c1)C(CCNC(=O)Nc1ccc(Br)cn1)=NCC2.O=C(O)C(=O)O [6b-12, 1-(5-Bromopyridin-2-yl)-3-(2-(7-methoxy-3,4-dihydroisoquinolin-1-yl)ethyl)urea oxalate] | 48.1% | 16.3% | 49.4% | PR (protection rate) ([1]; 1.25 μM): above 10% |
| COc1ccc(C(=O)NCCC2=NCCc3ccc(OC)cc32)cc1 [6a-6, 4-Methoxy-N-(2-(7-methoxy-3,4-dihydroisoquinolin-1-yl)ethyl) benzamideoxalate] | 24.9% | - | 34.1% |  |
| COc1ccc2c(c1)C(CCNC(=O)c1cc(Cl)ccc1Br)=NCC2.O=C(O)C(=O)O [6a-27, 2-Bromo-5-chloro-N-(2-(7-methoxy-3,4-dihydroisoquinolin-1-yl)ethyl)benzamide oxalate] | 45.9% | 10.1% | 51.8% | PR (protection rate) ([1]; 1.25 μM): above 10% |
| COc1ccc2c(c1)C(CCNC(=O)Cc1cc3ccccc3[nH]1)=NCC2.O=C(O)C(=O)O [6a-17, 2-(1H-Indol-2-yl)-N-(2-(7-methoxy-3,4-dihydroisoquinolin-1-yl)ethyl)acetamide oxalate] | 42.2% | - | 55.8% |  |
| 1-(3,5-Dimethylpyridin-4-yl)-3-(2-(7-methoxy-3,4-dihydroisoquinolin-1-yl)ethyl)urea oxalate [6b-11] |  | - |  | IR (inhibitory rate) L02 (L02 cells): 27.3%; IR (inhibitory rate) HEK293 (HEK293 cells): 28.1% |
| COc1ccc2c(c1)C(CCNC(=O)c1ccc(C(C)(C)C)cc1)=NCC2.O=C(O)C(=O)O [6a-18, 4-(tert-Butyl)-N-(2-(7-methoxy-3,4-dihydroisoquinolin-1-yl)ethyl)benzamide oxalate] | 63.2% | - | 53.3% |  |
| CC[C@@H](CO)NC(=O)[C@@H]1C=C2c3cccc4c3c(cn4C)C[C@H]2N(C)C1 [Methysergide] |  |  |  | IC50 (5-HT2C receptor): 25 nM; inhibition at 100 µM (5-HT2C receptor; read-out: Inhibition 5-HT2C): 101% |
| COc1ccc2c(c1)C(CCNC(=O)C1CC1)=NCC2 [6a-4, N-(2-(7-Methoxy-3,4-dihydroisoquinolin-1-yl)ethyl) cyclopropanecarboxamideoxalate] | < 0% | - | 46.2% |  |
| COc1ccc2c(c1)C(CCNC(=O)c1ccc(C(F)(F)F)cc1)=NCC2 [6a-8, N-(2-(7-Methoxy-3,4-dihydroisoquinolin-1-yl)ethyl) -4-(trifluoromethyl) benzamideoxalate] | 60.6% | - | 38.4% |  |
| COc1ccc2c(c1)C(CCNC(=O)Nc1cc(Cl)c(Cl)c(Cl)c1)=NCC2.O=C(O)C(=O)O [6b-5, 1-(2-(7-Methoxy-3,4-dihydroisoquinolin-1-yl)ethyl)-3-(3,4,5-trichlorophenyl)urea oxalate] | 40.7% | - | 40.1% |  |
| COc1ccc2c(c1)C(CCNC(=O)Nc1cccc([N+](=O)[O-])c1)=NCC2.O=C(O)C(=O)O [6b-15, 1-(2-(7-Methoxy-3,4-dihydroisoquinolin-1-yl)ethyl)-3-(3-nitrophenyl)urea oxalate] | 48.9% | - | 47.5% |  |
| COc1ccc2c(c1)C(CCNC(=O)c1ccco1)=NCC2 [6a-9, N-(2-(7-Methoxy-3,4-dihydroisoquinolin-1-yl)ethyl) furan-2-carboxamideoxalate] | 52.6% |  | 60.1% | PR (protection rate) ([1]; 5 μM): 7.9%; PR (protection rate) ([1]; […]): 14.9% |
| COc1ccc2c(c1)C(CCNC(=O)Nc1ccccc1C(F)(F)F)=NCC2.O=C(O)C(=O)O [6b-4, 1-(2-(7-Methoxy-3,4-dihydroisoquinolin-1-yl)ethyl)-3-(2-(trifluoromethyl)phenyl)urea oxalate] | 57.7% | 11.9% | 29.2% | PR (protection rate) ([1]; 1.25 μM): above 10% |
